In patent US4402970A, “1,7-Dihydro-pyrrolo[3,4-e][1,4]diazepin-2(1H)-one derivatives” (Gruppo Lepetit S.p.A., priority 1981, dated 1983):
Read-outs that look alike come from different tables or passages of the source.

Key:
benzodiazepine receptors [1] = test: benzodiazepine receptors test in vivo (displacement of 3H-Diazepam from rat brain receptors)
Method: (§1) The anti-anxiety activity of the compounds of the present invention was first shown by submitting the compounds to the "benzodiazepine receptors" test both in vitro and in vivo.
(§2) The in vitro experiments were carried out by following the method described by H. Moler and T. Okada in Life Sciences Vol. 20, 2101-2110 (1977) while those in vivo were carried out according to the procedures illustrated by S. Lippa et al. in Pharmacol. Biochem. & Behaviour, Vol. 9, pp. 853-856 (1978).

rats = test: potentiation of hexobarbital-induced sleeping time in rats (inducing activity); format: in vivo; conditions: for potentiation of hexobarbital-induced "sleeping time": same conditions, higher doses than 1 mg/kg p.o.
Method: (§3) This is considered as an indication of the absence of inducing activity. These favorable pharmacological properties of the compounds of the present invention are accompanied by a low toxicity, lower than that of the prior-art compounds. As an example, while the acute oral toxicity of the prior-art 3,7-dihydro-6,7-dimethyl-5-phenylpyrrolo[3,4-e][1,4]diazepin-2(1H)-one in mice is about 500 mg/kg, that of the compound of example 5 of the present invention is comprised between 600 and 700 mg/kg and that of the compound of example 11 is higher than 20,000 mg/kg.

benzodiazepine receptors [2] = test: benzodiazepine receptors test in vitro (displacement of 3H-Diazepam from rat brain receptors); format: binding
Method: as §1, §2

[3] = acute oral toxicity in mice; conditions: mouse, in vivo
Method: as §3

[4] = system: mice (pentylenetetrazole-induced death); test: antipentylenetetrazole bioassay in mice (anticonvulsant activity); format: in vivo; conditions: oral; for ED50: Mus musculus, 2 h
Method: To evaluate the anticonvulsant activity the compounds of the present invention have been submitted to the antipentylenetetrazole bioassay in mice. The experiments have been carried out by following essentially the methodology described by Berger in J. Pharm. Exptl. Ther. 104, 468, (1952). More particularly, a fatal dose of pentylenetetrazole (140 mg/kg s.c.) was administered to groups of ten mice each, treated, 30 minutes before the administration of the convulsant agent, with a selected dose of the potential anticonvulsant compound. […] Since the animals of the control group died within 30 minutes, the effectiveness of the compounds tested, at each dose tested, was expressed as the number of animals of the group which were still alive two hours after the administration of pentylenetetrazole, out of the total number of animals of the group (10).
By testing each compound at different doses, the corresponding ED50, i.e. the dose at which 50% of the treated animals are protected, was calculated.
The same test was carried out also with 3,7-dihydro-6,7-dimethyl-5-phenyl-pyrrol[3,4-e][1,4]diazepin-2 (1H)-one (IX) [drawing 13]

monkeys = test: taming effect test on naturally vicious and aggressive monkeys; format: in vivo; conditions: oral dose of 1 mg/kg
Text: Another behavioural test which confirmed the anti-anxiety properties of the compounds of the present invention was the so-called "taming effect" test carried out on naturally vicious and aggressive monkeys.
The "taming effect" on monkeys is one of the most meaningful and reliable parameters with which the anti-anxiety properties of a compound can be investigated. […] A true "taming effect", as an indication of the anti-anxiety properties of a compound not ascribable to CNS-depression, is reached when the animals become docile and friendly so as to accept food from the observer's hand.

[5] = 30 minutes before pentylenetetrazole 140 mg/kg s.c., survival at two hours, read-out: ED50 (dose at which 50% of the treated animals are protected)

| Compound | "in vivo" % inhibition at 1 mg/kg/os (benzodiazepine receptors [1]) | potentiation of hexobarbital-induced "sleeping time" (rats) | Ki (benzodiazepine receptors [2]) | LD50 [3] | ED50 [4, 5] | treated animals displaying a true "taming effect" (monkeys) | ED50 ([4]; prior-art compound, calculated in the same way, read-out: ED50) | anticonvulsant activity relative to the compounds of the present invention ([4]; comparison of ED50) | dose from which hexobarbital-induced "sleeping time" is potentiated (rats; p.o.) |
| --- | --- | --- | --- | --- | --- | --- | --- | --- | --- |
| Cc1c2c(cn1C)NC(=O)C(O)N=C2c1ccccc1 (stereo not shown) [Example 5, 1,7-Dihydro-3-hydroxy-6,7-dimethyl-5-phenyl-pyrrolo[3,4-e][1,4]diazepin-2(1H)-one] | -45% | did not show this potentiating effect even at higher doses | 45.9 nM | 600 to 700 mg/kg |  |  |  |  |  |
| CC(=O)OC1N=C(c2ccccc2Cl)c2c(cn(C)c2C)NC1=O (stereo not shown) [Example 9, 5-(2-chlorophenyl)-3-acetoxy-1,7-dihydro-6,7-dimethylpyrrolo[3,4-e][1,4]diazepin-2-(1H)-one] |  |  |  |  | 7.5 mg/kg |  |  |  |  |
| Cc1c2c(cn1C)NC(=O)C(O)N=C2c1ccccc1Cl (stereo not shown) [Example 10] |  |  |  |  | 7.5 mg/kg | at least 50% |  |  |  |
| Cc1c2c(cn1C)N(C)C(=O)C(O)N=C2c1ccccc1Cl (stereo not shown) [Example 11, 5-(2-Chlorophenyl)-1,7-dihydro-3-hydroxy-1,6,7-trimethylpyrrolo[3,4-e][1,4]diazepin-2(1H)-one] | -54% | did not show this potentiating effect even at higher doses | 2.82 nM | > 20000 mg/kg | 5 mg/kg | at least 50% |  |  |  |
| Cc1c2c(cn1C)NC(=O)CN=C2c1ccccc1 [IX, 3,7-dihydro-6,7-dimethyl-5-phenyl-pyrrol[3,4-e][1,4]diazepin-2 (1H)-one, reference compound] | -33% |  | 97 nM | ~500 mg/kg |  |  | 15 mg/kg | at least twice less active than the compounds of the present invention | 1 mg/kg p.o. |
